According to patent US4067990A, “Process for the preparation of insecticidal compositions based on carbamic esters” (Airwick Industries, Inc., priority 1971, dated 1978):

Tested on: common cockroaches
Experiment: Test I: insecticidal efficacy of sprayed glass plates after 24 hours, one minute contact, common cockroaches
Type: in vivo, Blatta orientalis
Details: compared with Dioxacarb
Experimental: After a standing time of 24 hours, tests to determine insecticidal efficacy were carried out on common cockroaches, these being placed on the treated face of the glass plate for one minute, and then transferred for observation to ventilated glass jars. […] The proportions recorded are shown below.

## CNC(=O)Oc1ccccc1OC(C)C [Arprocarb, 2-isopropoxyphenyl N-methyl-carbamate]
  insecticidal behaviour in words: behaves exactly as Dioxacarb
